Experimental data published in publication PMC10057977, “Use of In Vivo Imaging and Physiologically-Based Kinetic Modelling to Predict Hepatic Transporter Mediated Drug–Drug Interactions in Rats” (Pharmaceutics, 2023).
Where two headings read alike, the source gives them in different places.

How the values were obtained:
MRP2 = conditions: in vitro; bracket not explained in the table; ref 30,43-55 and in-house data from Merck & Co.; cited from earlier work
[1] = Compartmental pharmacokinetic models of test drugs fitted to published rat data
Source text: For all the selected drugs, compartmental pharmacokinetic models were developed to inform dose selection in the DCE-MRI studies. The one-compartment, two-compartment, or three-compartment pharmacokinetic models, following intravenous and oral administration, were fitted to published pharmacokinetic data for these drugs in rats. The models assumed linear pharmacokinetics of the six drugs investigated, to allow identification of the model parameters with the limited available rat pharmacokinetic data. […] The model equations, sources of pharmacokinetic data, parameters estimates, and criteria for the dose selection for all the drugs are reported in the Supplementary Material, Section S1. […]
The University of Manchester, Manchester M13 9PL, UK […]
S1. Pharmacokinetic models for test compounds
Pharmacokinetic models were developed for selected test compounds to inform dose selection in the dynamic contrast enhanced magnetic resonance imaging (DCE-MRI) studies, as described below. The one-compartment (Eq. S1–
Eq. S2), two-compartment (Eq. S3–Eq. S5), or three-compartment pharmacokinetic model (Eq. S6 –Eq. S9), following intravenous (IV) and oral administration, was fitted to available pharmacokinetic data in rat (Table S1). The precision of the parameter estimates (% coefficient of variation; CV) was calculated as described previously. […]
dA1(t) = R + k ∙A (t) − k ∙A (t) for 0 < t < Tinf […]
dA1(t)= ka ∙AG(t) − k10 ∙ A1(t) for t > Tinf S1 […]
dA1(t) = R + k ∙A (t) − (k + k )A (t) + k ∙A (t) for 0 < t < Tinf […]
dA1(t) = k ∙A (t) − (k + k )A (t) + k ∙ A (t) for t > Tinf
dA2(t)= k A (t) − k A (t) S4
dA1(t) = Rinf − (k10 + k12 + k13)A1(t) + k21 ∙ A2(t) + k31 ∙ A3(t) for 0 < t < Tinf […]
dA1(t) = −(k + k + k )A (t) + k ∙ A (t) + k ∙ A (t) for t > Tinf
dA2(t) = k A (t) − k A (t) S7
dA3(t) = k A (t) − k A (t) S8
Initial conditions for oral dose and IV bolus (Rinf=0):
• Oral dose: AG(0) = dose ∙F, all the other compartments equal to 0;
• IV bolus: A1(0) = dose, all the other compartments equal to 0.
Where t is time, An(t) is amount in compartment n at time t; Rinf is IV infusion rate; Tinf is the duration of IV infusion; ka, k10, k12, k21, k13 and k31 are rate constants; V1 is volume of compartment 1; F is oral bioavailability; and Y is the meas-ured drug concentration in plasma or blood.
These models assume linear kinetics of the test compounds, despite known non-linearity in pharmacokinetics for […]
The assumption of linear kinetics allowed simplification of the modelling exercise and enabled identification of the model parameters with the available pharmacokinetic data. The models were used to simulate test compound concentrations in plasma under different dosing schedules, to determine suitable doses for in vivo DCE-MRI studies.

rMrp2 = rMrp2 (Rattus norvegicus, UniProt Q63120); type: in vivo; design: from tissue; host or cells: liver of living male Wistar rats (Charles River Laboratories); conditions: for Simple Effect Size (95% CI) kbh: gadoxetate biliary efflux, control − treatment, positive = decrease, site G2
Sequence of rMrp2 (Q63120 whole entry): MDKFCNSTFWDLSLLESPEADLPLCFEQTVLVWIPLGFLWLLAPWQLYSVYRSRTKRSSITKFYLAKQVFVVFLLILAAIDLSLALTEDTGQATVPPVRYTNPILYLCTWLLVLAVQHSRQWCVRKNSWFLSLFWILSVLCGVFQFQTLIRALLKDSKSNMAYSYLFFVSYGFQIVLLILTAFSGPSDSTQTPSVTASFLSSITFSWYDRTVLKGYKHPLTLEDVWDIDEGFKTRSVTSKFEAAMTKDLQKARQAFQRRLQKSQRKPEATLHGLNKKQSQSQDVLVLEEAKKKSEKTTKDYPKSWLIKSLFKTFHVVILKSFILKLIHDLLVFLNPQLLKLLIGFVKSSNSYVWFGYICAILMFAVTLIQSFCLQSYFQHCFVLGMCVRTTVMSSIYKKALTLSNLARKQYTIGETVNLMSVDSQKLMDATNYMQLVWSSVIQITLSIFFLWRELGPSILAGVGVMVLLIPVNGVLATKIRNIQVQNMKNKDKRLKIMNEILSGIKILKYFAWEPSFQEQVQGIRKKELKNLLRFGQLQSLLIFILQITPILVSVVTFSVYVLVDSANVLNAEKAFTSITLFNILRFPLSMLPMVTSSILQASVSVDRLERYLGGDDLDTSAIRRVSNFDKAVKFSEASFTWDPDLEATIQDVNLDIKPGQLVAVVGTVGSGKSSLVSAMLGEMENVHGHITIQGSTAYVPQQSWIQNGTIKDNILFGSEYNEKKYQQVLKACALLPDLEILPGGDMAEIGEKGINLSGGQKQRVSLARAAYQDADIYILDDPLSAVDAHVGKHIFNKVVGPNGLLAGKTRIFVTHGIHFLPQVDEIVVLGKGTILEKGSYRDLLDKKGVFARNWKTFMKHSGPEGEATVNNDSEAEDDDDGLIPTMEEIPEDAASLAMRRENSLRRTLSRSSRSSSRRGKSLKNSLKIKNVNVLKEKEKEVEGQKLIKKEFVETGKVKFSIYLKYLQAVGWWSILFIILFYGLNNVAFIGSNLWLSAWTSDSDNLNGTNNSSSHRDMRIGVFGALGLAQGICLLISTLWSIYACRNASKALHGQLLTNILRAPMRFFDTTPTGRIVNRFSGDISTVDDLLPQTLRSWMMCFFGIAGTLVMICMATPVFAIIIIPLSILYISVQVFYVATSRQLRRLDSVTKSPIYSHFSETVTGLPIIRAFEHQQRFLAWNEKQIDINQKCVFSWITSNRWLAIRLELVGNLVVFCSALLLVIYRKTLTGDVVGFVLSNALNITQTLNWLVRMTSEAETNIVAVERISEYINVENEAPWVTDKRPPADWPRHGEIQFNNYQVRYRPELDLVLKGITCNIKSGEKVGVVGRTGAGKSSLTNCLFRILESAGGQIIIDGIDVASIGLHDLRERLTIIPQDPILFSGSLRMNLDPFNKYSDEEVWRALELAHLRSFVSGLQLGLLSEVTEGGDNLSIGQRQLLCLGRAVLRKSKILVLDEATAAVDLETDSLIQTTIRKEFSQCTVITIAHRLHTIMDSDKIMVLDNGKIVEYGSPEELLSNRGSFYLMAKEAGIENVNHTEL
Source text: The tracer-kinetic model was developed to enable estimation of rate constants of hepatobiliary efflux from DCE-MRI profiles in individual animals. In this approach, the liver was assumed to consist of two compartments, the extracellular space (e) and the hepatocytes (h). Since water exchanges rapidly between those spaces, the change in relaxation rate was a weighted average (Equation (4)). (4) ΔR1(t)=r1,e·ve·ce(t)+r1,h·vh·ch(t)
The proportionality constant, r1,τ [L⋅mmol^−1⋅s^−1] , is the relaxivity of the contrast agent for the compartment τ (extracellular space, e or hepatocytes, h) at the respective field strength, while vτ [mL/mL tissue] is the volume fraction of the compartment τ . Previously measured ex vivo r1,tau values for gadoxetate were used in this work, as per. The underlying assumptions of the PBPK and tracer-kinetic models, relating to physiological volumes and perfusion, are consistent, despite different parameterizations according to the purpose of each model. For example, Vliv,extr in the PBPK model is defined as an absolute volume (units = L; sum of liver plasma and interstitial volumes), while in the tracer-kinetic model, ve is a volume fraction (dimensionless), defined as Vliv,extr/Vliver , where Vliver is the total liver volume. While some analogy can be drawn between CLactive […], and CLbiliary and kbh, the interpretations are distinct. For example, the operating concentrations of the PBPK parameters CLactive […], and CLbiliary are the unbound concentrations of gadoxetate in plasma and hepatocytes, while the tracer-kinetic model is parameterized with respect to the total concentration of gadoxetate.
Since ce(t) is the input to the hepatocytes, and no backflux from hepatocytes to extracellular space is assumed, Equation (5) can be derived. (5) vh·ch(t)=e^−t/Th∗khe·ce(t) where Th is the mean transit time of gadoxetate in the hepatocytes [min] , and * is convolution. The extracellular space is assumed to be in equilibrium with the blood pool and therefore the concentration ce(t) is proportional to the concentration cp(t) in the plasma of the feeding artery, i.e., ce(t) = (1 − E)·cp(t), where E is the extraction fraction of gadoxetate in the liver. Combining this assumption with Equations (4) and (5), and using (1 − E)·khe = E·Fp, with Fp being the apparent plasma flow into the liver [mL/min/mL tissue volume] , gives Equation (6), the operational equation for gadoxetate DCE-MRI in the liver. (6) ΔR1(t)=(1−E)·ve·r1,p·cp(t)+E·Fp·r1,h ·e^−t/Th ∗cp(t)
The rate constants were derived as K^trans = E·Fp, khe = E·Fp/(1 − E), and kbh = vh/Th, with a literature value for vh. The plasma concentrations cp(t) were not reliably measured in small animals due to the small diameter of the main vessels compared to the resolution of the measurement. […] Therefore, the source term cp(t) was derived from a two-compartment pharmacokinetic model for gadoxetate (see Supplementary Material, Section S5), and a step function as input in the blood compartment. The parameters kbh and khe were fitted to the liver data using a model implementation in Python. For each rat considered in these studies, the rate constants K^trans, khe, and kbh were calculated, in both control and inhibitory phases. The rate constants of the control and inhibitory phases were compared via calculation of simple (unstandardized) effect sizes (i.e., simple effect size = μcontrol − μtreatment, where μ is the mean average of all subjects) at the 95% confidence level. Statistical significance was assessed through a two-sided paired t-test, with p < 0.05 considered significant.

OATP1B1 = system: OATP1B1; design: method as in earlier work; conditions: in vitro; bracket not explained in the table; ref 30,43-55 and in-house data from Merck & Co.; cited from earlier work
[2] = two-compartment model, rat plasma, fitted to published IV data
[3] = three-compartment model, rat, IV data (ciclosporin: blood; bosentan: plasma, example estimates)
[4] = one-compartment model, rat, fitted to published PK data

Row | SMILES | IC50 (MRP2) | V1 [1, 2] | k10 [1, 2] | k12 [1, 2] | k21 [1, 2] | IC50 (OATP1B1) | V1 [1, 4] | other results
1 | C=C[C@@H]1C[C@]1(NC(=O)[C@@H]1C[C@@H](Oc2ncc(OC)c3ccc(Cl)cc23)CN1C(=O)[C@@H](NC(=O)OC(C)(C)C)C(C)(C)C)C(=O)NS(=O)(=O)C1CC1 [Asunaprevir] | 4 µM | 96.0 mL | 6.79 h⁻¹ | 3.71 h⁻¹ | 1.60 h⁻¹ | 0.55 µM | – | decrease in gadoxetate kbh (rMrp2; rat, asunaprevir 5 mg/kg iv): 31%
2 | COc1ccccc1Oc1c(NS(=O)(=O)c2ccc(C(C)(C)C)cc2)nc(-c2ncccn2)nc1OCCO [Bosentan] | > 100 µM | 32 mL | 5.0 h⁻¹ | 3.8 h⁻¹ | 3.5 h⁻¹ | 6.6 µM | – | k10 ([1]; three-compartment model, rat, IV data (ciclosporin: blood; bosentan: plasma, example estimates highly sensitive to initial estimates)): 5.1 h⁻¹; K31 [1, 3]: 0.13 h⁻¹; V1 [1, 3]: 26 mL; k12 [1, 3]: 6.1 h⁻¹; k13 [1, 3]: 0.90 h⁻¹; k21 [1, 3]: 4.3 h⁻¹; Simple Effect Size (95% CI) kbh (rMrp2; bosentan 4–6 mg/kg iv): 0.02 (−0.02, 0.07) mL/min/mL liver
3 | CCc1ccc(CCOc2ccc(CC3SC(=O)NC3=O)cc2)nc1 (stereo not drawn) [Pioglitazone] | > 133 µM | – | – | – | – | – | 88 mL | F ([1]; oral bioavailability, one-compartment model, rat): 0.66; decrease in gadoxetate kbh (rMrp2; rat, pioglitazone 0.4 mg/kg iv): 19%
4 | CO[C@H]1/C=C/O[C@@]2(C)Oc3c(C)c(O)c4c(O)c(c(/C=N/N5CCN(C)CC5)c(O)c4c3C2=O)NC(=O)/C(C)=C\C=C\[C@H](C)[C@H](O)[C@@H](C)[C@@H](O)[C@@H](C)[C@H](OC(C)=O)[C@@H]1C [Rifampicin] | 55 µM | – | – | – | – | 1.9 µM | 182.1 mL | Ki (MRP2): 24.3 µM; k10 [1, 4]: 0.294 h⁻¹; Simple Effect Size (95% CI) kbh (rMrp2; ** p < 0.01, rifampicin 2 mg/kg iv): 0.07 mL/min/mL liver; Ki (OATP1B1): 0.67 µM
5 | CCOc1ccc(C[C@@H](CN(CCN(CC(=O)[O-])CC(=O)[O-])CC(=O)[O-])N(CC(=O)[O-])CC(=O)[O-])cc1.[Gd+3].[H+].[H+] [gadoxetate, Gadoxetate] | – | – | – | – | – | – | – | kbh, new value in unified units (rMrp2; rat, in vivo): 1.19 mL/min; kbh, original value (rMrp2; rat, in vivo): 0.14 mL/ min/ mL tissue volume
